Source: US20100029702A1, “Method For Identification of Compound Having Anti-Anxiety Effect” (priority 2006, published 2010)

How the values were obtained:
variant 3 [1] = test: Changes in intracellular Ca2+ concentration in variant 3 gene stably-expressing strain; assay type: cell-based, human; conditions: variant3/CHO#14-18; A23187 20 μM, positive control
Method: (§1) Strains stably expressing splicing variants of the variant 3 gene were prepared by a method similar to the above-mentioned method using a variant 3 gene-expressing vector.
(§2) To analyze functions of the variant 3 gene, changes in the intracellular calcium (Ca^2+) concentration induced by CCK-8S were examined using a strain stably expressing the variant 3 gene prepared in Example 7. Changes in the intracellular calcium (Ca^2+) concentration were measured by a method similar to the method described in Example 5.
(§3) Cells were seeded in a 96-well plate (a plate with a black wall and a transparent bottom) at a cell count of 3×10^4/100 μL of medium/well and cultured overnight at 37° C. in a 5% CO2 incubator. On the following day, 50 μL of the medium was removed from each well, 50 μL of a loading buffer was added to each well, the mixture was reacted at room temperature for 1 h, so that a fluorescent dye contained in the loading buffer was taken up into the cell. The loading buffer was prepared by a method similar to the method described in Example 5. After reaction, changes over time in the fluorescence intensity after addition of CCK-8S in each well were measured using the FLEX station (Molecular Device) for 40 sec. CCK-8S was used at a final concentration of 10 pM to 1 μM. Furthermore, as a positive control of the assay, A23187 was used at a final concentration of 20 μM.

variant 3 [2] = target: T1, variant 3 (Homo sapiens, UniProt O60241, DEL364-418); test: as above; assay type: cell-based; conditions: variant 3 stably-expressing strain; CCK-8S 10 pM to 1 μM, figure at 1 nM
T1 construct: a vector expressing each full-length cDNA clone was constructed; expressed in transfected cells; host or cells: CHO-K1 (variant3/CHO#14-18), variant3/pcDNA3.1
T1 sequence (O60241 with tags, fused parts or gaps DEL364-418): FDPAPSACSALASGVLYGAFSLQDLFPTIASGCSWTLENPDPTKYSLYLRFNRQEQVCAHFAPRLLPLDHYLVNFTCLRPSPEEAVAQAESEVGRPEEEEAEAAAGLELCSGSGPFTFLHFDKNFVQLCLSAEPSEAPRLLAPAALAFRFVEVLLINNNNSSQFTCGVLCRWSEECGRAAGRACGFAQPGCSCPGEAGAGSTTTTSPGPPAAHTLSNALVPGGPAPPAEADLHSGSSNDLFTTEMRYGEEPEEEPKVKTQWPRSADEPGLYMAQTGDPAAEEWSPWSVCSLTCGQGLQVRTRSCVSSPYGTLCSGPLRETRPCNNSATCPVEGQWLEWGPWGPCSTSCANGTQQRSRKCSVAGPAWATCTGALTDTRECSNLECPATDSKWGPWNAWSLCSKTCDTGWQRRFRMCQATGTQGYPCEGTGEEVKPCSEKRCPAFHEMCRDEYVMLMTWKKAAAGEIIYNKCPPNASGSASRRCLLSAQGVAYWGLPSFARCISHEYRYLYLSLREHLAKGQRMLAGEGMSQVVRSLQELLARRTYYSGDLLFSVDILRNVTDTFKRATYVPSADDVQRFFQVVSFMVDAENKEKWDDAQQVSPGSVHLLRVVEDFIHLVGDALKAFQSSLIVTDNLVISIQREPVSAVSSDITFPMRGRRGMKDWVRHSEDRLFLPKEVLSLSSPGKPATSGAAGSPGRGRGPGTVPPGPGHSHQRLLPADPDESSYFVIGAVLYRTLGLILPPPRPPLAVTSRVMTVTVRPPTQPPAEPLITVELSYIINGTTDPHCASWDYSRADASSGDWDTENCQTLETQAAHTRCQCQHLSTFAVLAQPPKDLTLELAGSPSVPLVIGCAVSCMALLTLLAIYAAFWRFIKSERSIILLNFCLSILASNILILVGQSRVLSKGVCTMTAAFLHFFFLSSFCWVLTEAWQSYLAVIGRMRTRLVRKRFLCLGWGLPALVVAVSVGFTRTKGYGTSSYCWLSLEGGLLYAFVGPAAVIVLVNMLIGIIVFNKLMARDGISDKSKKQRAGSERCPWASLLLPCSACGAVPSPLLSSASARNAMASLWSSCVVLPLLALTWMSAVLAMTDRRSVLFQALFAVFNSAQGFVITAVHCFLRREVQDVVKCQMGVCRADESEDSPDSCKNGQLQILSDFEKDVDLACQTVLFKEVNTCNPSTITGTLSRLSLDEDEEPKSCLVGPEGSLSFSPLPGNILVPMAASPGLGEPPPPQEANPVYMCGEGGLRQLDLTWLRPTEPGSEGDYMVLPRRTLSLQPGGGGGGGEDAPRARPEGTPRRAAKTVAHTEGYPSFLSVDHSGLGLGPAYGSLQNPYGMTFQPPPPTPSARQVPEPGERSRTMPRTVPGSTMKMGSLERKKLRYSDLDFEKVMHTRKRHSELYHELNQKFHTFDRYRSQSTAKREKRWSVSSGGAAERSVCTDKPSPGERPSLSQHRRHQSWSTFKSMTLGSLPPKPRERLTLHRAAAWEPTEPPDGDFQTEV
Method: as §1, §2, §3

Compound	Change in intracellular Ca2+ concentration (fluorescence intensity) (variant 3 [1])	Change in intracellular Ca2+ concentration after addition of CCK-8S (variant 3 [2])
CNc1ccc2oc(C[C@H]3O[C@@]4(CC[C@H]3C)O[C@H]([C@H](C)C(=O)c3ccc[nH]3)[C@H](C)C[C@H]4C)nc2c1C(=O)O [A23187]	increased	
cholecystokinin octapeptide sulfated form [CCK-8S]		increase
